# In patent US9512168B2, “Compound, composition and method for treating and/or ameoliorating kidney disease” (Trineo Biotechnology Co. LTD., priority 2014, dated 2016):
# What was measured:
# Blb/c mice = assay: Lipopolysaccharide (LPS) induced in vivo kidney inflammation, urine protein; conditions: oral 100 mg/Kg; LPS 2.5 mg/Kg/day i.p. for 5 days; urine on day 5 and day 10; FIG. 3
# Experimental: Blb/c mice were kept in pathogen-free environment under 12:12 light-dark cycle with food (laboratory rodent diet 5001 purchased from PMI Nutrition International Inc. MO, USA) and water (i.e., distilled water) provided ad libitum, ambient temperature and relative humidity were respectively set at 22±3° C. and 50±20%. All procedures involving animal studies of the present disclose e comply with the “Guideline for the Care and Use of Laboratory Animals” issued by The Chinese-Taipei Society of Laboratory Animal Sciences.
# In this example, to evaluate the therapeutic or prophylactic function of the composition of example 1.2, animals were first injected intraperitoneally with lipopolysaccharide (LPS) to induce in vivo kidney inflammation before being subject to the treatment of the composition of example 1.2.
# Blb/c mice (6 weeks old) were randomly assigned to two groups, and injected intraperitoneally with lipopolysaccharide (LPS, 2.5 mg/Kg/day) for 5 consecutive days so as to induce kidney inflammation. […] Urine samples were respectively collected on the fifth and the tenth day after the experiment started, and analyzed for the level of urine protein therein. […]
# MDCK cells = assay: Cisplatin induced in vitro kidney cell apoptosis (mitochondria membrane potential, DiOC6 staining); assay type: cell-based, canine; conditions: FIG. 1A
# Experimental: Madin-Darby canine kidney (MDCK) cells (1.5×10^5 cells/mL) were cultured and maintained in Dulbecco's modified Eagle medium (DMEM) supplemented with 10% fetal bovine serum (FBS), 100 units/mL penicillin, […] streptomycin, 2 mM L-glutamine, non-essential amino acids and sodium pyruvate, and maintained in 5% CO2 at 37° C. until reached 80% confluence, then were subject to cell passages.
# MDCK cells were cultured in according to procedures described in the “Materials and Methods” section. To start the experiment, MDCK cells were first incubated with 50 μM cisplatin for 4 hrs, then various concentrations of the compound of formula (I) ([…] or 100 μg/mL) or the YKII-10 composition of example 1.2 (25 to 100 μg/mL) were given to cisplatin-treated cells and further incubated for another 24 hrs. Mitochondria membrane potentials were then measured by staining the live cells with fluorescent dyes (e.g., 50 nM DiOC6), in which 50 nM DiOC6 were added to cells and incubated at 37° C. for 30 min. The cells were then washed twice with phosphate buffer solution before subjecting to microscopy analysis using the inverted fluorescent microscope. […] Results are illustrated in FIGS. 1A and 1B.
structure (smiles),measurement,setting,value
C[C@H](CCC(=O)O)[C@H]1C[C@H](O)[C@@]2(C)C3=C(C(=O)C[C@]12C)[C@@]1(C)CCC(=O)C(C)(C)[C@@H]1C[C@@H]3O [compound of formula (I)],urine protein level,Blb/c mice,effective in reducing
same,reversal of cisplatin-induced apoptosis of MDCK cell,MDCK cells; 50 μg/mL or 100 μg/mL for 24 hrs after 50 μM cisplatin for 4 hrs,capable of reversing
same,recovery on the membrane potential,"MDCK cells; 100 μg/mL for 24 hrs after 50 μM cisplatin for 4 hrs, MDCK cells",about 80%
